Literature values as cited in patent US7019016B2, “NMDA NR2B antagonists for treatment” (Pfizer Inc, priority 2000, dated 2006).

Columns and labels:
[1] = target: NMDA receptors comprised of NR1/NR2B subunits (Homo sapiens, UniProt Q05586+Q13224); conditions: NR1/NR2B subunits compared to NR1/NR2A, NR2C, or NR2D subunits
[2] = animal models of pain perception

NMDA receptors comprised of NR1/NR2B subunits, sequence (Q13224 27-1484, other chains not shown): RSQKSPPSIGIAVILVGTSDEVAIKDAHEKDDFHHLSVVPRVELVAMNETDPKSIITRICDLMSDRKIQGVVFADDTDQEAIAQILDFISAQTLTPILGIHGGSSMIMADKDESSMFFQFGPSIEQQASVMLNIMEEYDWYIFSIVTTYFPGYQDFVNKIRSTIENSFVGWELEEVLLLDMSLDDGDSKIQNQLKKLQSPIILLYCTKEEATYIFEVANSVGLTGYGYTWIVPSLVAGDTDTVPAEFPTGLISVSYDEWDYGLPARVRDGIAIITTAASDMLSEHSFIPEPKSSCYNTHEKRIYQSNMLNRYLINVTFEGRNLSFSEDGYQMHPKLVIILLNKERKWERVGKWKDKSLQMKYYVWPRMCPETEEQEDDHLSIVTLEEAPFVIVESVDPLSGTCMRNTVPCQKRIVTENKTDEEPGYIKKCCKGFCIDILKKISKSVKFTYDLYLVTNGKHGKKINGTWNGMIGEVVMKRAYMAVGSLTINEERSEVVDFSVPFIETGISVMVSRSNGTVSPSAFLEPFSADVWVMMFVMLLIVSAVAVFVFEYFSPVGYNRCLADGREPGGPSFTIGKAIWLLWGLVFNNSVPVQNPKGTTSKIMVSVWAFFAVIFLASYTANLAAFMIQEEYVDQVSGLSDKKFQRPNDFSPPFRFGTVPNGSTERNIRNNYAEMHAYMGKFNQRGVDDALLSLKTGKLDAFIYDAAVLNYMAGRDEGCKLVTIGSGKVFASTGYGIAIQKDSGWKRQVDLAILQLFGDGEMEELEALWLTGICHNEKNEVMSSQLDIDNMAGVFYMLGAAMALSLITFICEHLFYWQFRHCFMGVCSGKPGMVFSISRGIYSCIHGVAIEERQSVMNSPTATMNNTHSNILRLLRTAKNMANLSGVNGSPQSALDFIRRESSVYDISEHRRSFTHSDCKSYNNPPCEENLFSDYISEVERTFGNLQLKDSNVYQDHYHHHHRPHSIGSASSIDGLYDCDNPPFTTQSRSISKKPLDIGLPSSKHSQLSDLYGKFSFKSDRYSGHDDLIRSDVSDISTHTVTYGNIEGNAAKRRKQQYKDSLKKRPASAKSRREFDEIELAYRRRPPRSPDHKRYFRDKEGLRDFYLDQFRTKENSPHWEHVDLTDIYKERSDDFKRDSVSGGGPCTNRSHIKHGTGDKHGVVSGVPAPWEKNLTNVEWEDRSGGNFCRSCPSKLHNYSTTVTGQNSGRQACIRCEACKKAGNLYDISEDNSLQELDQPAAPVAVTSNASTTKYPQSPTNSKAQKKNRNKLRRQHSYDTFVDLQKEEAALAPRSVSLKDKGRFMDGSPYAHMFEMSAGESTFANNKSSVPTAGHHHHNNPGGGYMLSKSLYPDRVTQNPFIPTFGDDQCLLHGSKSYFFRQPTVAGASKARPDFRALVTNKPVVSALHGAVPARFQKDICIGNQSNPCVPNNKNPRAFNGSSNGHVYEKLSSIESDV

Question: Which “blockade of ion current through NMDA receptors” value [1] does the source give for `CC(C(O)c1ccc(O)cc1)N1CCC(Cc2ccccc2)CC1` (centres unmarked) [ifenprodil] here?
Answer: Its value is “more potent and efficacious”.

Question: What about the analgesic activity [2] of the same compound?
Answer: The analgesic activity was “significant analgesic activity”.
